Results from ChEMBL document CHEMBL3745645, “Synthesis, in vitro antitumor activity, dihydrofolate reductase inhibition, DNA intercalation and structure-activity relationship studies of 1,3,5-triazine analogues” (Bioorg Med Chem Lett, 2016).
Activity calls are given as the source filed them. No cut-off for these calls is given here.

Tests used:
Assay type in all cases: functional
[1] = Cytotoxicity against human Caki1 cells at 10 uM after 48 hrs by SRB assay; conditions: CAKI-1, 48 h, read-out: GI
[2] = Cytotoxicity against human RXF393 cells at 10 uM after 48 hrs by SRB assay; conditions: RXF 393, 48 h, read-out: GI
[3] = system: SN12C; experiment: Cytotoxicity against human SN12C cells at 10 uM after 48 hrs by SRB assay; conditions: read-out: GI
[4] = system: TK-10; experiment: Cytotoxicity against human TK10 cells at 10 uM after 48 hrs by SRB assay
[5] = Cytotoxicity against human UO31 cells at 10 uM after 48 hrs by SRB assay; conditions: UO-31, 48 h, read-out: GI
[6] = Cytotoxicity against human DU145 cells at 10 uM after 48 hrs by SRB assay; conditions: DU-145, 48 h, read-out: GI
[7] = system: MCF7; experiment: Cytotoxicity against human MCF7 cells at 10 uM after 48 hrs by SRB assay; conditions: MCF7, 48 h, read-out: GI
[8] = system: MDA-MB-231; experiment: Cytotoxicity against human MDA-MB-231 cells at 10 uM after 48 hrs by SRB assay; conditions: MDA-MB-231, 48 h, read-out: GI
[9] = system: Hs-578T; experiment: Cytotoxicity against human Hs 578T cells at 10 uM after 48 hrs by SRB assay
[10] = Cytotoxicity against human BT549 cells at 10 uM after 48 hrs by SRB assay; conditions: BT-549, 48 h, read-out: GI
[11] = system: T47D; experiment: Cytotoxicity against human T47D cells at 10 uM after 48 hrs by SRB assay; conditions: read-out: GI
[12] = system: MDA-MB-468; experiment: Cytotoxicity against human MDA-MB-468 cells at 10 uM after 48 hrs by SRB assay; conditions: MDA-MB-468, 48 h, read-out: GI
[13] = system: CCRF-CEM; experiment: Cytotoxicity against human CCRF-CEM cells at 10 uM after 48 hrs by SRB assay
[14] = system: HL-60(TB); experiment: Cytotoxicity against human HL-60(TB) cells at 10 uM after 48 hrs by SRB assay
[15] = system: K562; experiment: Cytotoxicity against human K562 cells at 10 uM after 48 hrs by SRB assay
[16] = system: MOLT-4; experiment: Cytotoxicity against human MOLT4 cells at 10 uM after 48 hrs by SRB assay
[17] = system: RPMI-8226; experiment: Cytotoxicity against human RPMI8226 cells at 10 uM after 48 hrs by SRB assay
[18] = system: SR; experiment: Cytotoxicity against human SR cells at 10 uM after 48 hrs by SRB assay
[19] = system: A549; experiment: Cytotoxicity against human A549 cells at 10 uM after 48 hrs by SRB assay; conditions: A549, 48 h, read-out: GI
[20] = Cytotoxicity against human HOP62 cells at 10 uM after 48 hrs by SRB assay; conditions: HOP-62, 48 h, read-out: GI
[21] = Cytotoxicity against human HOP92 cells at 10 uM after 48 hrs by SRB assay; conditions: HOP-92, 48 h, read-out: GI
[22] = system: NCI-H226; experiment: Cytotoxicity against human NCI-H226 cells at 10 uM after 48 hrs by SRB assay; conditions: NCI-H226, 48 h, read-out: GI
[23] = system: NCI-H322M; experiment: Cytotoxicity against human NCI-H322M cells at 10 uM after 48 hrs by SRB assay; conditions: read-out: GI
[24] = system: NCI-H460; experiment: Cytotoxicity against human NCI-H460 cells at 10 uM after 48 hrs by SRB assay; conditions: NCI-H460, 48 h, read-out: GI
[25] = system: NCI-H522; experiment: Cytotoxicity against human NCI-H522 cells at 10 uM after 48 hrs by SRB assay; conditions: NCI-H522, 48 h, read-out: GI
[26] = Cytotoxicity against human COLO205 cells at 10 uM after 48 hrs by SRB assay; conditions: COLO 205, 48 h, read-out: GI
[27] = Cytotoxicity against human HCC2998 cells at 10 uM after 48 hrs by SRB assay; conditions: HCC 2998, 48 h, read-out: GI
[28] = Cytotoxicity against human HCT116 cells at 10 uM after 48 hrs by SRB assay; conditions: HCT-116, 48 h, read-out: GI
[29] = system: HCT-15; experiment: Cytotoxicity against human HCT15 cells at 10 uM after 48 hrs by SRB assay
[30] = system: HT-29; experiment: Cytotoxicity against human HT-29 cells at 10 uM after 48 hrs by SRB assay; conditions: HT-29, 48 h, read-out: GI
[31] = system: KM12; experiment: Cytotoxicity against human KM12 cells at 10 uM after 48 hrs by SRB assay; conditions: KM12, 48 h, read-out: GI
[32] = Cytotoxicity against human SW620 cells at 10 uM after 48 hrs by SRB assay; conditions: SW-620, 48 h, read-out: GI
[33] = Cytotoxicity against human SF268 cells at 10 uM after 48 hrs by SRB assay; conditions: SF-268, 48 h, read-out: GI
[34] = Cytotoxicity against human SF295 cells at 10 uM after 48 hrs by SRB assay; conditions: SF-295, 48 h, read-out: GI
[35] = Cytotoxicity against human SF539 cells at 10 uM after 48 hrs by SRB assay; conditions: SF-539, 48 h, read-out: GI
[36] = Cytotoxicity against human SNB19 cells at 10 uM after 48 hrs by SRB assay; conditions: SNB-19, 48 h, read-out: GI
[37] = Cytotoxicity against human SNB75 cells at 10 uM after 48 hrs by SRB assay; conditions: SNB-75, 48 h, read-out: GI
[38] = system: U-251; experiment: Cytotoxicity against human U251 cells at 10 uM after 48 hrs by SRB assay; conditions: U-251, 48 h, read-out: GI
[39] = Cytotoxicity against human LOXIMVI cells at 10 uM after 48 hrs by SRB assay; conditions: LOX IMVI, read-out: GI
[40] = system: Malme-3M; experiment: Cytotoxicity against human MALME-3M cells at 10 uM after 48 hrs by SRB assay; conditions: read-out: GI
[41] = system: M14; experiment: Cytotoxicity against human M14 cells at 10 uM after 48 hrs by SRB assay; conditions: M14, 48 h, read-out: GI
[42] = system: MDA-MB-435; experiment: Cytotoxicity against human MDA-MB-435 cells at 10 uM after 48 hrs by SRB assay; conditions: MDA-MB-435, 48 h, read-out: GI
[43] = system: SK-MEL-2; experiment: Cytotoxicity against human SK-MEL-2 cells at 10 uM after 48 hrs by SRB assay; conditions: SK-MEL-2, 48 h, read-out: GI
[44] = system: SK-MEL-28; experiment: Cytotoxicity against human SK-MEL-28 cells at 10 uM after 48 hrs by SRB assay
[45] = system: SK-MEL-5; experiment: Cytotoxicity against human SK-MEL-5 cells at 10 uM after 48 hrs by SRB assay; conditions: SK-MEL-5, 48 h, read-out: GI
[46] = Cytotoxicity against human UACC257 cells at 10 uM after 48 hrs by SRB assay; conditions: UACC-257, 48 h, read-out: GI
[47] = Cytotoxicity against human IGROV1 cells at 10 uM after 48 hrs by SRB assay; conditions: IGROV-1, 48 h, read-out: GI
[48] = Cytotoxicity against human OVCAR3 cells at 10 uM after 48 hrs by SRB assay; conditions: OVCAR-3, 48 h, read-out: GI
[49] = Cytotoxicity against human OVCAR4 cells at 10 uM after 48 hrs by SRB assay; conditions: OVCAR-4, 48 h, read-out: GI
[50] = system: OVCAR-5; experiment: Cytotoxicity against human OVCAR5 cells at 10 uM after 48 hrs by SRB assay
[51] = Cytotoxicity against human OVCAR8 cells at 10 uM after 48 hrs by SRB assay; conditions: OVCAR-8, 48 h, read-out: GI
[52] = system: NCI/ADR-RES; experiment: Cytotoxicity against human NCI-ADR-RES cells at 10 uM after 48 hrs by SRB assay
[53] = Cytotoxicity against human SKOV3 cells at 10 uM after 48 hrs by SRB assay; conditions: SK-OV-3, 48 h, read-out: GI
[54] = system: 786-0; experiment: Cytotoxicity against human 786-0 cells at 10 uM after 48 hrs by SRB assay; conditions: 786-0, 48 h, read-out: GI
[55] = system: A498; experiment: Cytotoxicity against human A498 cells at 10 uM after 48 hrs by SRB assay; conditions: A498, 48 h, read-out: GI
[56] = system: ACHN; experiment: Cytotoxicity against human ACHN cells at 10 uM after 48 hrs by SRB assay; conditions: read-out: GI

SMILES: Cc1nc2cc(Nc3nc(NCCN)nc(Nc4ccc(F)cc4)n3)ccc2n1Cc1ccccc1
- inhibition of growth at 10 µM [1]: 5.83%
- inhibition of growth at 10 µM [2]: 28%
- inhibition of growth at 10 µM [3]: 14.9%
- growth inhibition (GI) [4]: inactive
- inhibition of growth at 10 µM [5]: 10.7%
- inhibition of growth at 10 µM [6]: 17.8%
- inhibition of growth at 10 µM [7]: 31.2%
- inhibition of growth at 10 µM [8]: 39.6%
- growth inhibition (GI) [9]: inactive
- inhibition of growth at 10 µM [10]: 9.96%
- inhibition of growth at 10 µM [11]: 30.9%
- inhibition of growth at 10 µM [12]: 26.8%
- growth inhibition (GI) [13]: Active
- growth inhibition (GI) [14]: Active
- growth inhibition (GI) [15]: Active
- growth inhibition (GI) [16]: Active
- growth inhibition (GI) [17]: Active
- growth inhibition (GI) [18]: Active
- inhibition of growth at 10 µM [19]: 16.1%
- inhibition of growth at 10 µM [20]: 20.9%
- inhibition of growth at 10 µM [21]: 51.5%
- inhibition of growth at 10 µM [22]: 4.61%
- inhibition of growth at 10 µM [23]: 0.32%
- inhibition of growth at 10 µM [24]: 17.4%
- inhibition of growth at 10 µM [25]: 14.1%
- inhibition of growth at 10 µM [26]: 18%
- inhibition of growth at 10 µM [27]: 29.4%
- inhibition of growth at 10 µM [28]: 39.7%
- growth inhibition (GI) [29]: inactive
- inhibition of growth at 10 µM [30]: 64.9%
- inhibition of growth at 10 µM [31]: 29.4%
- inhibition of growth at 10 µM [32]: 26.1%
- inhibition of growth at 10 µM [33]: 28.2%
- inhibition of growth at 10 µM [34]: 20.2%
- inhibition of growth at 10 µM [35]: 3.98%
- inhibition of growth at 10 µM [36]: 8.37%
- inhibition of growth at 10 µM [37]: 15.8%
- inhibition of growth at 10 µM [38]: 22.6%
- inhibition of growth at 10 µM [39]: 41.8%
- inhibition of growth at 10 µM [40]: 6.46%
- inhibition of growth at 10 µM [41]: 18.4%
- inhibition of growth at 10 µM [42]: 19.6%
- inhibition of growth at 10 µM [43]: 9.54%
- growth inhibition (GI) [44]: inactive
- inhibition of growth at 10 µM [45]: 13.4%
- inhibition of growth at 10 µM [46]: 9.53%
- inhibition of growth at 10 µM [47]: 18.6%
- inhibition of growth at 10 µM [48]: 13.3%
- inhibition of growth at 10 µM [49]: 23%
- growth inhibition (GI) [50]: inactive
- inhibition of growth at 10 µM [51]: 10.9%
- growth inhibition (GI) [52]: inactive
- inhibition of growth at 10 µM [53]: 4.49%
- inhibition of growth at 10 µM [54]: 17.6%
- inhibition of growth at 10 µM [55]: 32.6%
- inhibition of growth at 10 µM [56]: 3.22%
